Source: patent publication US6914045B2, “Glycopeptide antibiotics” (Wyeth Holdings Corporation, priority 2001, dated 2005)

Tests used:
Experiment in all cases: in vitro antibacterial evaluation, MIC by broth dilution
Type in all cases: cell-based
Escherichia coli = details: 18 hours at 35° C.
Staphylococcus sp. = details: broth dilution, 18 hours at 35° C.; for MIC Staphylococcus aureus (GC 1131): strain GC 1131; for MIC Staphylococcus aureus (ATCC 29213): strain ATCC 29213; for MIC Staphylococcus aureus (GC 3051): strain GC 3051; for MIC Staphylococcus aureus (GC 3053): strain GC 3053; for MIC Staphylococcus aureus (GC 4541): strain GC 4541; for MIC Staphylococcus aureus (GC 4542): strain GC 4542; for MIC Staphylococcus aureus-SMITH (GC 4543): strain GC 4543; for MIC Staphylococcus aureus (GC 4544): strain GC 4544; for MIC Staphylococcus aureus (GC 4545): strain GC 4545; for MIC Staphylococcus haemolyticus (GC 4546): strain GC 4546; for MIC Coagulase Negative Staphylococcus (GC 4547): strain GC 4547; for MIC Coagulase Negative Staphylococcus (GC 4548): strain GC 4548; for MIC Coagulase Negative Staphylococcus (GC 4549): strain GC 4549; for MIC Coagulase Negative Staphylococcus (GC 4551): strain GC 4551; for MIC Coagulase Negative Staphylococcus (GC 6257): strain GC 6257
Summary of the method: (§1)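 Following National Committee for Clinical Laboratory Standards recommendations (M7-A2), susceptibility was measured by dilution in Muller-Hinton II […]. Bacteria were seeded at 5×10^5 CFU/mL against compound concentrations from 64 down to 0.06 μg/mL.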

Streptococcus sp. = details: broth dilution, 18 hours at 35° C.
Summary of the method: as §1

Enterococcus sp. = details: broth dilution, 18 hours at 35° C.
Summary of the method: as §1

[1] = inoculum 5×10^5 CFU/mL, strain ATCC 6301
[2] = inoculum 5×10^5 CFU/mL, strain GC 1894
[3] = inoculum 5×10^5 CFU/mL, strain GC 4563
[4] = inoculum 5×10^5 CFU/mL, strain GC 4564
[5] = inoculum 5×10^5 CFU/mL, strain GC 4565
[6] = inoculum 5×10^5 CFU/mL, strain ATCC 29212
[7] = inoculum 5×10^5 CFU/mL, strain GC 2242
[8] = inoculum 5×10^5 CFU/mL, strain GC 2243
[9] = inoculum 5×10^5 CFU/mL, strain GC 2691
[10] = inoculum 5×10^5 CFU/mL, strain GC 3059
[11] = inoculum 5×10^5 CFU/mL, strain GC 4552
[12] = inoculum 5×10^5 CFU/mL, strain GC 4553
[13] = inoculum 5×10^5 CFU/mL, strain GC 4554
[14] = inoculum 5×10^5 CFU/mL, strain GC 4556
[15] = inoculum 5×10^5 CFU/mL, strain GC 4557
[16] = inoculum 5×10^5 CFU/mL, strain GC 4558
[17] = inoculum 5×10^5 CFU/mL, strain GC 6189

CC(c1ccccc1)C1NC(=O)CNC(=O)C(CO)NC(=O)C(C(O)C2CNC(=N)N2C2OC(CO)C(O)C(O)C2O)NC(=O)C(C(O)C2CNC(=N)N2)NC(=O)C(Cc2ccc(OC3OC(CO)C(OC4OC5COC(c6cccc(Oc7cccc(C(F)(F)F)c7)c6)OC5C(O)C4O)C(O)C3O)cc2)NC1=O (stereo not shown) [Example 184]
>64 µg/mL: MIC Escherichia coli (ATCC 25922) (Escherichia coli) | MIC Escherichia coli (GC 4559) (Escherichia coli)
<0.06 µg/mL: MIC Streptococcus pneumoniae (ATCC 6301) (Streptococcus sp.) | MIC Streptococcus pneumoniae (GC 1894) (Streptococcus sp.) | MIC Streptococcus pneumoniae (GC 4565) (Streptococcus sp.) | MIC Streptococcus pneumoniae (ATCC 6301) (Streptococcus sp.; [1]) | MIC Streptococcus pneumoniae (GC 1894) (Streptococcus sp.; [2]) | MIC Streptococcus pneumoniae (GC 4565) (Streptococcus sp.; [5])
0.25 µg/mL: MIC Streptococcus pyogenes (GC 4563) (Streptococcus sp.) | MIC Streptococcus pyogenes (GC 4563) (Streptococcus sp.; [3])
0.12 µg/mL: MIC Streptococcus agalactiae (GC 4564) (Streptococcus sp.) | MIC Streptococcus agalactiae (GC 4564) (Streptococcus sp.; [4])
32 µg/mL: MIC Escherichia coli (GC 4560) (Escherichia coli) | MIC Staphylococcus aureus (GC 1131) (Staphylococcus sp.; inoculum 5×10^5 CFU/mL) | MIC Staphylococcus aureus (ATCC 29213) (Staphylococcus sp.) | MIC Staphylococcus aureus (GC 1131) (Staphylococcus sp.) | MIC Staphylococcus aureus (GC 3051) (Staphylococcus sp.) | MIC Staphylococcus aureus (GC 3053) (Staphylococcus sp.) | MIC Staphylococcus aureus (GC 4541) (Staphylococcus sp.) | MIC Staphylococcus aureus (GC 4542) (Staphylococcus sp.) | MIC Staphylococcus aureus-SMITH (GC 4543) (Staphylococcus sp.) | MIC Staphylococcus aureus (GC 4544) (Staphylococcus sp.) | MIC Staphylococcus aureus (GC 4545) (Staphylococcus sp.) | MIC Staphylococcus haemolyticus (GC 4546) (Staphylococcus sp.) | MIC Coagulase Negative Staphylococcus (GC 4547) (Staphylococcus sp.) | MIC Coagulase Negative Staphylococcus (GC 4549) (Staphylococcus sp.) | MIC Coagulase Negative Staphylococcus (GC 4551) (Staphylococcus sp.) | MIC Enterococcus avium (GC 4558) (Enterococcus sp.) | MIC Enterococcus faecalis (ATCC 29212) (Enterococcus sp.) | MIC Enterococcus faecalis (GC 2242) (Enterococcus sp.) | MIC Enterococcus faecalis (GC 2691) (Enterococcus sp.) | MIC Enterococcus faecalis (GC 3059) (Enterococcus sp.) | MIC Enterococcus faecalis (GC 4552) (Enterococcus sp.) | MIC Enterococcus faecalis (GC 4554) (Enterococcus sp.) | MIC Enterococcus faecalis (GC 6189) (Enterococcus sp.) | MIC Enterococcus faecium (GC 4556) (Enterococcus sp.) | MIC Enterococcus faecium (GC 4557) (Enterococcus sp.) | MIC Enterococcus faecalis (ATCC 29212) (Enterococcus sp.; [6]) | MIC Enterococcus faecalis (GC 2242) (Enterococcus sp.; [7]) | MIC Enterococcus faecalis (GC 2691) (Enterococcus sp.; [9]) | MIC Enterococcus faecalis (GC 3059) (Enterococcus sp.; [10]) | MIC Enterococcus faecalis (GC 4552) (Enterococcus sp.; [11]) | MIC Enterococcus faecalis (GC 4554) (Enterococcus sp.; [13]) | MIC Enterococcus faecium (GC 4556) (Enterococcus sp.; [14]) | MIC Enterococcus faecium (GC 4557) (Enterococcus sp.; [15]) | MIC Enterococcus avium (GC 4558) (Enterococcus sp.; [16]) | MIC Enterococcus faecalis (GC 6189) (Enterococcus sp.; [17])
16 µg/mL: MIC Coagulase Negative Staphylococcus (GC 4548) (Staphylococcus sp.) | MIC Coagulase Negative Staphylococcus (GC 6257) (Staphylococcus sp.) | MIC Enterococcus faecalis (GC 4553) (Enterococcus sp.) | MIC Enterococcus faecium (GC 2243) (Enterococcus sp.) | MIC Enterococcus faecium (GC 2243) (Enterococcus sp.; [8]) | MIC Enterococcus faecalis (GC 4553) (Enterococcus sp.; [12])

CC(C)=CCCC(C)=CCCC(C)=CCOc1cccc(C2OCC3OC(OC4C(CO)OC(Oc5ccc(CC6NC(=O)C(C(C)c7ccccc7)NC(=O)CNC(=O)C(CO)NC(=O)C(C(O)C7CNC(=N)N7C7OC(CO)C(O)C(O)C7O)NC(=O)C(C(O)C7CNC(=N)N7)NC6=O)cc5)C(O)C4O)C(O)C(O)C3O2)c1 (stereo not shown) [Example 185]
<0.06 µg/mL: MIC Streptococcus pneumoniae (GC 1894) (Streptococcus sp.) | MIC Streptococcus pneumoniae (GC 4565) (Streptococcus sp.) | MIC Streptococcus pneumoniae (GC 1894) (Streptococcus sp.; [2]) | MIC Streptococcus pneumoniae (GC 4565) (Streptococcus sp.; [5])
64 µg/mL: MIC Enterococcus avium (GC 4558) (Enterococcus sp.) | MIC Enterococcus avium (GC 4558) (Enterococcus sp.; [16])
0.12 µg/mL: MIC Streptococcus pneumoniae (ATCC 6301) (Streptococcus sp.) | MIC Streptococcus pneumoniae (ATCC 6301) (Streptococcus sp.; [1])
32 µg/mL: MIC Enterococcus faecalis (GC 4553) (Enterococcus sp.) | MIC Enterococcus faecium (GC 2243) (Enterococcus sp.) | MIC Enterococcus faecium (GC 2243) (Enterococcus sp.; [8]) | MIC Enterococcus faecalis (GC 4553) (Enterococcus sp.; [12])
1 µg/mL: MIC Streptococcus agalactiae (GC 4564) (Streptococcus sp.) | MIC Streptococcus agalactiae (GC 4564) (Streptococcus sp.; [4])
16 µg/mL: MIC Streptococcus pyogenes (GC 4563) (Streptococcus sp.) | MIC Streptococcus pyogenes (GC 4563) (Streptococcus sp.; [3])
>64 µg/mL: MIC Escherichia coli (ATCC 25922) (Escherichia coli) | MIC Escherichia coli (GC 4559) (Escherichia coli) | MIC Escherichia coli (GC 4560) (Escherichia coli) | MIC Staphylococcus aureus (GC 1131) (Staphylococcus sp.; inoculum 5×10^5 CFU/mL) | MIC Staphylococcus aureus (ATCC 29213) (Staphylococcus sp.) | MIC Staphylococcus aureus (GC 1131) (Staphylococcus sp.) | MIC Staphylococcus aureus (GC 3051) (Staphylococcus sp.) | MIC Staphylococcus aureus (GC 3053) (Staphylococcus sp.) | MIC Staphylococcus aureus (GC 4541) (Staphylococcus sp.) | MIC Staphylococcus aureus (GC 4542) (Staphylococcus sp.) | MIC Staphylococcus aureus-SMITH (GC 4543) (Staphylococcus sp.) | MIC Staphylococcus aureus (GC 4544) (Staphylococcus sp.) | MIC Staphylococcus aureus (GC 4545) (Staphylococcus sp.) | MIC Staphylococcus haemolyticus (GC 4546) (Staphylococcus sp.) | MIC Coagulase Negative Staphylococcus (GC 4547) (Staphylococcus sp.) | MIC Coagulase Negative Staphylococcus (GC 4548) (Staphylococcus sp.) | MIC Coagulase Negative Staphylococcus (GC 4549) (Staphylococcus sp.) | MIC Coagulase Negative Staphylococcus (GC 4551) (Staphylococcus sp.) | MIC Coagulase Negative Staphylococcus (GC 6257) (Staphylococcus sp.) | MIC Enterococcus faecalis (ATCC 29212) (Enterococcus sp.) | MIC Enterococcus faecalis (GC 2242) (Enterococcus sp.) | MIC Enterococcus faecalis (GC 2691) (Enterococcus sp.) | MIC Enterococcus faecalis (GC 3059) (Enterococcus sp.) | MIC Enterococcus faecalis (GC 4552) (Enterococcus sp.) | MIC Enterococcus faecalis (GC 4554) (Enterococcus sp.) | MIC Enterococcus faecalis (GC 6189) (Enterococcus sp.) | MIC Enterococcus faecium (GC 4556) (Enterococcus sp.) | MIC Enterococcus faecium (GC 4557) (Enterococcus sp.) | MIC Enterococcus faecalis (ATCC 29212) (Enterococcus sp.; [6]) | MIC Enterococcus faecalis (GC 2242) (Enterococcus sp.; [7]) | MIC Enterococcus faecalis (GC 2691) (Enterococcus sp.; [9]) | MIC Enterococcus faecalis (GC 3059) (Enterococcus sp.; [10]) | MIC Enterococcus faecalis (GC 4552) (Enterococcus sp.; [11]) | MIC Enterococcus faecalis (GC 4554) (Enterococcus sp.; [13]) | MIC Enterococcus faecium (GC 4556) (Enterococcus sp.; [14]) | MIC Enterococcus faecium (GC 4557) (Enterococcus sp.; [15]) | MIC Enterococcus faecalis (GC 6189) (Enterococcus sp.; [17])
